Data from PMC3969711 (Chembiochem : a European journal of chemical biology, 2014).
Values joined by “and” are separate entries in the source; they are usually repeats but may differ in a detail not shown here. Equal entries are not always repeated. Where two headings read alike, the source gives them in different places.

Key:
LasR [1] = target: T1, LasR (Pseudomonas aeruginosa, UniProt P25084); experiment: LasR competitive antagonism reporter assay in pump-mutant PAO-JG21; format: cell-based, P. aeruginosa; conditions: PAO-JG21, 25 µg/mL PAβN
LasR [2] = target: T1, LasR; format: cell-based, P. aeruginosa; conditions: for Fold change of IC50: IC50 in PAO-JP2 vs PAO-JG21
LasR [3] = target: T1, LasR; conditions: in E. coli, related reporter constructs; cited from earlier work
wild-type P. aeruginosa = conditions: cited from earlier work
LasR [4] = target: T1, LasR; conditions: in P. aeruginosa, related reporter constructs; cited from earlier work

T1 sequence (P25084 whole entry): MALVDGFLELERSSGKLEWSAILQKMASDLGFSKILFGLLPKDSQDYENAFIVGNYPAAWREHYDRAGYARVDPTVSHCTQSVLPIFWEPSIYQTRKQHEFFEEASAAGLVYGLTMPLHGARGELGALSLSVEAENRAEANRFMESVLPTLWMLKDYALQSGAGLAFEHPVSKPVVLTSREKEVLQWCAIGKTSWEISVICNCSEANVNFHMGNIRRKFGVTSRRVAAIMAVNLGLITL

Row | Structure (SMILES) | effect of pump inhibitor PAβN on LasR inhibitory potency (LasR [1]) | Fold change of IC50 (LasR [2]) | effect of pump inhibitor PAβN on LasR inhibitory potency (LasR [2]; PAO-JP2, 25 µg/mL PAβN) | maximum inhibition of LasR activity (LasR [2]; PAO-JP2 harboring plasI-LVAgfp, dose-response (Figure S-14)) | inhibition of LasR activity (LasR [3]) | inhibition of pyocyanin production (wild-type P. aeruginosa) | inhibition of LasR activity (LasR [4])
1 | Cc1cc2nc(N)[nH]c2cc1C [DMABI, 5,6-dimethyl-2-aminobenzimidazole] | no effect | 1.6 | no effect | ~ 40% and 40% | – | – | –
2 | CCCCCCCCCC(=O)CC(=O)Nc1ccccc1 [3-oxo-C12-aniline] | – | 6.5 | – | – | 55% | strongly inhibiting pyocyanin production | 30%
